One test deals with Coronaviridae. The experiment in a line: Evaluated for effect on murine coronavirus replication; No effect. The format is functional, organism-based.
The species named for a further test is Homo sapiens. The experiment in a line: Compound was tested for inhibition of a proteinase 3CL pro of human coronavirus; Inhibited.
Test [1] relates to Murine hepatitis virus strain A59. The experiment in a line: Evaluated for cellular toxicity against mouse hepatitis virus strain A59 up to 100 uM, Not toxic. The format is functional, organism-based.

One molecule from ChEMBL document CHEMBL1148473, “Sabadinine: a potential non-peptide anti-severe acute-respiratory-syndrome agent identified using structure-aided design” (J Med Chem, 2004) can be followed below.

Activity calls are given as the source filed them. The rule behind the calls is not given here.

In the case of `CC1CCC2N(C1)CC1[C@](O)(C(O)C[C@@]3(O)C4CCC5C6(O)OC4(C[C@@]13O)C5(C)CCC6O)[C@]2(C)O` (stereo partly drawn), the outcome in the test with Coronaviridae was inactive. Besides, the results for the Activity result (in the test listed under Homo sapiens; in test [1]) were “Inhibited” and “Not toxic”, respectively.
